Results as given in patent US10821104B2, “Five-membered heterocyclic amides WNT pathway inhibitor” (SUZHOU SINOVENT PHARMACEUTICALS CO., LTD., priority 2015, dated 2020).
Read-outs that look alike come from different tables or passages of the source.

How the values were obtained:
[1] = system: Wnt/β-catenin reporter (Super 8×TOPFLASH) in HEK293 cells cocultured with L-Wnt3a-expressing cells; test: 293T/TOPLUC-Wnt3a luciferase reporter gene assay; type: cell-based; settings: read-out: IC50, inhibition of Wnt/β-catenin reporter gene readout
Description: In this assay, HEK293 cells harboring a luciferase-based Wnt/β-catenin reporter (Super 8×TOPFLASH) were cocultured with L-Wnt3a-expressing cells. 293T/TOPLUC-Wnt3a were incubated with small molecules for 24 h. The level of the Luciferase reporter gene was used as an indicator for Wnt ligand-driven, LEF/TCF-dependent transcriptional activities. IC50 is defined as the compound concentration at which 50% of luciferase reporter activity is inhibited.
Results: REX-P compounds were investigated on CrownBio Cell plateform to assay the activity of inhibiting Wnt/β-catenin reporter activity, results are shown in Table 3.

[2] = system: regeneration of zebrafish tailfin resected; test: Effect of compounds on tailfin regeneration of zebrafish (resected caudal fin); type: in vivo; settings: Danio rerio; 3 d.p.f. zebrafish with resected caudal fins treated until 7 d.p.f.; read-out: IC50, inhibition of regeneration of zebrafish tailfin resected
Description: Method: Three days post fertilization (d.p.f) zebrafish with resected caudal fins were placed in water containing 1% DMSO carrier or compounds (10 μM˜0.001 μM) until 7 d.p.f. The zebrafish were placed in a 6-well microplate at a density of 15 zebrafish per well with 3 mL of fish water. Zebrafish were incubated at 28.5° C. in the dark until 7 d.p.f., then anesthetized, and imaged under a dissecting stereomicroscope installed with a high-speed video camera (JVC, Japan). Quantitative length of regeneration of tailfin was performed and pixels data were expressed as mean±SEM. The effect of compound on regeneration of tailfin of zebrafish was calculated based on the following formula: Drug inhibition on regeneration of tailfin (%)=[1−Pixel(compound)/Pixel(vehicle)]×100%.
(§1) Inhibition curves were generated using GraphPad Prism 6.0 (GraphPad Software Inc., San Diego Calif.) and IC50 was determined with logistic regression.

[3] = system: zebrafish axis formation; test: Effect of compounds on axis formation of zebrafish (zebrafish phenotype screening); type: in vivo, Zebrafish Danio rerio; settings: embryos treated from 3 h to 48 h post fertilization, concentration at which 50% of axis formation is inhibited, read-out: IC50, inhibition of axis formation of zebrafish
Description: Method: Zebrafish embryos were collected after natural spawning. Embryos were treated from the 16 cell stage (3 hours post fertilization) with different concentration series 100 μM˜0.001 μM of the compound in 1% DMSO/fish water or with DMSO equivalent. The zebrafish were placed in a 6-well microplate at a density of 20 zebrafish per well with 3 mL of fish water. Zebrafish were incubated at 28.5° C. in the dark until 48 h post fertilization, then anesthetized, and imaged under a dissecting stereomicroscope installed with a high-speed video camera (JVC, Japan). Quantitative length of axis was performed with NIS-Elements D 3.1 soft and pixels data were expressed as mean±SEM. The effect of compound on axis formation of zebrafish was calculated based on the following formula: Inhibition on axis growth (%)=[1−Pixel(compound)/Pixel(vehicle)]×100%
as §1

[4] = Metabolic stability in human liver microsomes; type: in vitro ADME
Text: (§2) Metabolic stability and pharmacokinetic characteristics of REX-P-7 were detected in human and mouse liver microsomes and in Balb/c mice, respectively.

[5] = In vivo PK in Balb/c mice
Description: as §2
Method of PK experiment: 18 male Balb/c mice were divided into 2 groups, 9 animals in each group. Group 1 was administered intravenously with REX-P-7 at a dose of 5 mg/kg. Group 2 was administered orally with REX-P-7 at a dose of 10 mg/kg. Blood samples (100 μL) for PK analysis were collected into EDTA microtainers (K2 EDTA, the final concentration in blood sample is 0.25 mg/mL) from retro orbital plexus at pre-dose, 0.083, 0.25, 0.5, 1, 2, 4, 8, 24 hours post-dosing for PO and IV groups. Immediately after collection, blood collection tubes were gently inverted at least 5 times, ensuring complete mixing, then immediately placed on ice. The blood was centrifuged at 8000 rpm for 5 min at 4° C. to separate the plasma from the blood cells. After separation, 35 μL plasma was transferred into clean tube labeled by the compound name, animal number and timepoint. Plasma was stored at −80° C. until analysis.

[6] = Metabolic stability in mouse liver microsomes; type: in vitro ADME
Text: as §2

[7] = Homo sapiens, HEK293, 24 h incubation
[8] = Balb/c mice, summary of Table 4
[9] = IV dose 5 mg/kg, male Balb/c mice, plasma
[10] = PO dose 10 mg/kg, male Balb/c mice, plasma

Molecule	IC50 [1, 7] [µM]	IC50 [2] [µM]	IC50 ([3]; Danio rerio) [µM]	other results
Cc1cc(-c2ncc(CNC(=O)c3nnc(-c4ccccn4)s3)cc2C)ccn1 [REX-P-47, N-((2′,3-dimethyl-[2,4′-bipyridin]-5-yl)methyl)-5-(pyridin-2-yl)-1,3,4-thiadiazole-2-carboxamide]	0.000673	0.207	0.163	
Cc1cc(-c2ncc(CNC(=O)c3cnc(-c4ccccc4)s3)cc2C)ccn1 [REX-P-3, N-((2′,3-dimethyl-[2,4′-bipyridin]-5-yl)methyl)-2-phenylthiazole-5-carboxamide]	< 0.0001	0.084	0.144	
Cc1cc(-c2ncc(CC(=O)Nc3ccc(-c4cnccn4)cn3)cc2C)ccn1 [LGK-974, reference compound]	0.000574	0.462	0.583	
Cc1cc(-c2ncc(CNC(=O)c3cc(-c4ccccc4)n(C)n3)cc2C)ccn1 [REX-P-9, N-((2′,3-dimethyl-[2,4′-bipyridin]-5-yl)methyl)-1-methyl-5-phenyl-1H-pyrazole-3-carboxamide]	> 1		> 20	
Cc1cc(-c2ncc(CNC(=O)c3nc(-c4ccccc4)cs3)cc2C)ccn1 [REX-P-6, N-((2′,3-dimethyl-[2,4′-bipyridin]-5-yl)methyl)-4-phenylthiazole-2-carboxamide]	> 1		> 100	
Cc1cc(-c2ncc(CNC(=O)c3nnc(-c4cnccn4)s3)cc2C)ccn1 [REX-P-52, N-((2′,3-dimethyl-[2,4′-bipyridin]-5-yl)methyl)-5-(pyrazin-2-yl)-1,3,4-thiadiazole-2-carboxamide]	0.00138	0.746	0.64	
Cc1cc(-c2ncc(CNC(=O)c3nnc(-c4ncccc4C)s3)cc2C)ccn1 [REX-P-56, N-((2′,3-dimethyl-[2,4′-bipyridin]-5-yl)methyl)-5-(3-methylpyridin-2-yl)-1,3,4-thiadiazole-2-carboxamide]			0.062	
Cc1cc(-c2ncc(CNC(=O)c3csc(-c4ccccc4)n3)cc2C)ccn1 [REX-P-5, N-((2′,3-dimethyl-[2,4′-bipyridin]-5-yl)methyl)-2-phenylthiazole-4-carboxamide]	> 1		> 40	
Cc1cc(-c2ncc(CNC(=O)c3cc(-c4ccccn4)[nH]n3)cc2C)ccn1 [REX-P-16, N-((2′,3-dimethyl-[2,4′-bipyridin]-5-yl)methyl)-5-(pyridin-2-yl)-1H-pyrazole-3-carboxamide]	0.0168		> 10	
Cc1cc(-c2ncc(CNC(=O)c3nnc(-c4ncccc4F)s3)cc2C)ccn1 [REX-P-48, N-((2′,3-dimethyl-[2,4′-bipyridin]-5-yl)methyl)-5-(3-fluoropyridin-2-yl)-1,3,4-thiadiazole-2-carboxamide]		0.721	0.896	
Cc1cc(-c2ncc(CNC(=O)c3ncc(-c4ccccc4)s3)cc2C)ccn1 [REX-P-4, N-((2′,3-dimethyl-[2,4′-bipyridin]-5-yl)methyl)-5-phenylthiazole-2-carboxamide]	< 0.0001		0.0369	
Cc1cc(-c2ncc(CNC(=O)c3cc(-c4ccccc4)[nH]n3)cc2C)ccn1 [REX-P-2, N-((2′,3-dimethyl-[2,4′-bipyridin]-5-yl)methyl)-5-phenyl-1H-pyrazole-3-carboxamide]	0.00176	3.91	8.23	
Cc1cc(-c2ncc(CNC(=O)c3cc(-c4ccccc4)on3)cc2C)ccn1 [REX-P-7, N-((2′,3-dimethyl-[2,4′-bipyridin]-5-yl)methyl)-5-phenylisoxazole-3-carboxamide]	0.00069	0.047	0.024	Eh % (HLM) [4]: 56.7%; bioavailability (in words) [5, 8]: good bioavailability; half-life (in words) [5, 8]: good half-life; CL (/F) ([5]; IV dose 5 mg/kg, male Balb/c mice): 0.17 L/h/kg; AUC0-t/Dose [5, 9]: 5770 ng·h/mL; Cmax/Dose [5, 9]: 4.167 µg/mL; AUC0-t/Dose [5, 10]: 2922 ng·h/mL; Cmax/Dose [5, 10]: 1.923 µg/mL; half-life ([5]; mouse, plasma, IV dose 5 mg/kg, male Balb/c mice): 1.68 h; bioavailability ([5]; mouse, plasma, PO 10 mg/kg vs IV 5 mg/kg, male Balb/c mice): 50.6%; half-life ([5]; mouse, plasma, PO dose 10 mg/kg, male Balb/c mice): 1.62 h; Eh % (MLM) [6]: 65%
Cc1cc(-c2ncc(CNC(=O)c3nnc(-c4cncc(F)c4)s3)cc2C)ccn1 [REX-P-49, N-((2′,3-dimethyl-[2,4′-bipyridin]-5-yl)methyl)-5-(5-fluoropyridin-3-yl)-1,3,4-thiadiazole-2-carboxamide]	0.000248	0.137	0.052	
Cc1cc(-c2ncc(CNC(=O)c3cnc(-c4cccc(Cl)c4)s3)cc2C)ccn1 [REX-P-22, 2-(3-chlorophenyl)-N-((2′,3-dimethyl-[2,4′-bipyridin]-5-yl)methyl)thiazole-5-carboxamide]	0.00072	0.028	0.178	
Cc1cc(-c2ncc(CNC(=O)c3nnc(-c4ncccn4)s3)cc2C)ccn1 [REX-P-51, N-((2′,3-dimethyl-[2,4′-bipyridin]-5-yl)methyl)-5-(pyrimidin-2-yl)-1,3,4-thiadiazole-2-carboxamide]			> 10	
Cc1cc(-c2ncc(CNC(=O)c3ncc(-c4cccc(Cl)c4)s3)cc2C)ccn1 [REX-P-12, 5-(3-chlorophenyl)-N-((2′,3-dimethyl-[2,4′-bipyridin]-5-yl)methyl)thiazole-2-carboxamide]	0.00916		> 100	
5-(4-chlorophenyl)-N-((2′,3-dimethyl-[2,4′-bipyridin]-5-yl)methyl)thiazole-2-carboxamide [REX-P-13]				IC50 ([1]; 24 h incubation): > 1 µM; IC50 [3]: > 10 µM
Cc1cc(-c2ncc(CNC(=O)c3nnc(-c4cccc(C)n4)s3)cc2C)ccn1 [REX-P-50, N-((2′,3-dimethyl-[2,4′-bipyridin]-5-yl)methyl)-5-(6-methylpyridin-2-yl)-1,3,4-thiadiazole-2-carboxamide]	0.000389	0.111	0.064	
Cc1cc(-c2ncc(CNC(=O)c3nnc(-c4ccccc4)s3)cc2C)ccn1 [REX-P-8, N-((2′,3-dimethyl-[2,4′-bipyridin]-5-yl)methyl)-5-phenyl-1,3,4-thiadiazole-2-carboxamide]	0.00192	0.027	0.021	
Cc1cc(-c2ncc(CNC(=O)c3nnc(-c4cccc(Cl)c4)s3)cc2C)ccn1 [REX-P-45, 5-(3-chlorophenyl)-N-((2′,3-dimethyl-[2,4′-bipyridin]-5-yl)methyl)-1,3,4-thiadiazole-2-carboxamide]	0.00031	0.023	0.014	
Cc1cc(-c2ncc(CNC(=O)c3nnc(-c4cccc(F)c4)s3)cc2C)ccn1 [REX-P-46, N-((2′,3-dimethyl-[2,4′-bipyridin]-5-yl)methyl)-5-(3-fluorophenyl)-1,3,4-thiadiazole-2-carboxamide]	0.000125	0.016	0.01	
Cc1cc(-c2ncc(CNC(=O)c3cc(-c4ccccc4)nn3C)cc2C)ccn1 [REX-P-1, N-((2′,3-dimethyl-[2,4′-bipyridin]-5-yl)methyl)-1-methyl-3-phenyl-1H-pyrazole-5-carboxamide]	0.0926		29.9	
